According to the NIST ThermoML archive (doi:10.1016/j.tca.2018.01.022):
± gives the expanded uncertainty stated by the source.

Settings: 298 K; 101.33 kPa; Crystal; Buoyancy - hydrostatic balance

Structure (SMILES)	mass density [kg/m3]
[Mo] [molybdenum]	9999 ± 600
[Al] [aluminum]	2656 ± 310
